Reference: PMC3753236, “Glucocorticosteroids in Nano-Sterically Stabilized Liposomes Are Efficacious for Elimination of the Acute Symptoms of Experimental Cerebral Malaria” (PLoS ONE, 2013)

Legend:
[1] = tested on: Plasmodium berghei ANKA (PbAus); assay: Late-stage treatment of ECM followed by artemisone, PbAus-infected C57Bl/6 mice
Protocol: Plasmodium berghei ANKA (PbA; PbA MRA-311, CDC, Atlanta, GA, USA) was maintained in vivo by serial transfer of parasitized erythrocytes (PE) from infected to naïve mice. Experiments were also performed using a second strain of PbA, similarly maintained, and designated PbAus in the text (courtesy of Prof. G. Grau, University of Sydney, Australia).
Parasitemia was monitored by thin blood smears prepared from tail blood. These were stained with a 25% Giemsa solution, examined under a light microscope, and parasitemia determined as the percent of infected red blood cells per 10,000 erythrocytes. Disease severity was determined according to scoring of neurological symptoms and changes in weight and temperature, as previously described […] Parasitemias above 20% and the absence of neurological symptoms indicated severe anemic malaria.
For early ECM treatment, injections were given on days 3, 5, 7, and 9 p.i; for late treatment, treatment was given every other day, starting on day 5 p.i. for a total of at least two injections. Infected, non-treated control mice were injected with 5% dextrose or empty nSSL. Clinical signs and parasitemias were monitored and disease severity scored as described […] At each time-point, at least 3 mice from each group were chosen at random, deeply anesthetized, and brains were removed following intracardial perfusion (using saline, if organs were destined for real-time (rt)PCR analysis, or saline/formalin, if organs were destined for histopathological analysis). Organs destined for rtPCR analysis were snap-frozen in liquid nitrogen and stored at −80°C until use. Organs destined for immunohistology were immediately immersed in cryoprotectant solution (see below).

[2] = tested on: PbAus-infected C57Bl/6 mice; assay: Brain edema, Evans blue dye extravasation; type: in vivo; conditions: treatment days 3, 5, 7, 9 p.i.
Protocol: BBB disruption was assessed by quantifying Evans blue dye extravasation. 200 µl 2% (w/v) Evan's blue solution in PBS was injected i.v. to pre-warmed mice. After 2 h mice were anesthetized and perfused intracardially with ice-cold PBS. Brains were extracted, homogenized in 1 ml PBS, and centrifuged; the supernatant was read by spectrophotometry at 510 nm. Values were normalized to the values from the brains of non-infected mice similarly injected.

astrocytes = assay: Astrocyte activation, GFAP immunohistology; type: in vivo, C57Bl/6 mice; conditions: for Astrocytes, normalized IOD: GFAP, normalized to non-infected mice
Protocol: Sections were thaw-mounted onto on poly-L-lysine-coated slides and stored at -80°C until use.
Slides were thawed by sequential incubation at −20°C and 5°C (10 minutes at each temperature) and incubated in blocking solution consisting of 20% of 5% BSA and 80% of 5% NGS, in a moist environment at room temperature (RT). After one hour the blocking solution was removed and sections incubated overnight at 5°C with primary antibody diluted 1∶200 in blocking solution. Microglia were stained using rabbit anti-mouse ionized calcium binding adaptor molecule 1 (IBA-1) (Wako Chemicals, Richmond, VA, USA); astrocytes were stained using rabbit anti-bovine glial fibrillary acidic protein (GFAP) (cross-reactive to mouse; LifeSpan Biosciences, Seattle, WA, USA). After washing in PBS, slides were incubated for one hour at RT with secondary antibody, Cy3-AffiniPure donkey anti-rabbit IgG H+L (diluted 1∶200 in PBS; Jackson Immunoresearch Laboratories, West Grove, PA, USA), followed by an additional wash. After addition of 4′,6-diamidino-2-phenylindole (DAPI) in mounting solution (Dapi-Fluoromount-G, Southern Biotech, Birmingham, AL, USA) the slides were mounted with coverslips and examined by fluorescent microscopy. At least three sections per brain (6 fields each) were examined, and the total number of astrocytes and microglia counted. High-resolution images of stained slides were photographed using a laser confocal scanning microscope. Images were visualized and analyzed with ImagePro analysis software: quantification of relative fluorescence was performed using the integrated optical density (IOD) parameter. IOD values of infected non-treated or treated mice were normalized to non-infected mouse values.

[3] = Biodistribution of BMS administered as free BMS or nSSL-BMS; conditions: infected mice; for concentration at 1 h / concentration at 6 h / concentration at 24 h / concentration at 48 h: C57Bl/6 Ola-Hsd, mouse, iv, µg drug/g organ; for concentration at 1 h: 1 h post-injection; for concentration at 48 h: 48 h post-injection
Protocol: The total and intraliposomal (after treatment with Dowex 2X-800 anion exchanger, pH 5, which binds all free drug) concentrations of MPS or BMS and their hydrolysis products were quantified using HPLC [5]. Liposome size distribution, phospholipid concentration, drug to lipid ratio, and level of free drug (i.e. percent drug encapsulated) were determined (see Table 1) as previously described.
At 1 h, 6 h, 24 h, and 48 h post-injection, mice (n = 3 per group) were anesthetized and sacrificed for organ collection. Organs were pooled and homogenized in 5% dextrose, followed by spiking with hydrocortisone, which served as an internal standard for extraction and sample processing. The homogenates were extracted as described elsewhere. Quantification of BMS and its derivatives was performed by HPLC as described above.

[4] = brain, 20 mg/kg, BMS in brain, 20 mg/kg i.v. on day 6 p.i.
[5] = heart, 20 mg/kg, BMS in heart, 20 mg/kg i.v. on day 6 p.i.
[6] = liver, 20 mg/kg, BMS in liver, 20 mg/kg i.v. on day 6 p.i.
[7] = lungs, 20 mg/kg, BMS in lungs, 20 mg/kg i.v. on day 6 p.i.

Q: For C[C@H]1C[C@H]2[C@@H]3CCC4=CC(=O)C=C[C@]4(C)[C@@]3(F)[C@@H](O)C[C@]2(C)[C@@]1(O)C(=O)COC(=O)CCC(=O)O [BMS, β-methasone hemisuccinate], which “Mice that died of acute toxicity” value ([1]; 20 mg/kg on days 5, 7, 9 p.i., upon second or third injection) is on record?
A: Its value is 6/10.

Q: What about the “Average clinical score on day 7 p.i.” value ([1]; 20 mg/kg, treatment started day 5 p.i.) of the same compound?
A: Its value is 4.2±2.2.

Q: And the “Edema, ng Evan's blue/brain” value ([2]; day 5 p.i.)?
A: Its value is 263±95 ng Evan's blue/brain.

Q: What about the “Edema, ng Evan's blue/brain” value ([2]; day 9 p.i.) of the same compound?
A: Its value is 263±6 ng Evan's blue/brain.

Q: And the “Astrocytes, normalized IOD” value (astrocytes; day 5 p.i.)?
A: The value was 1.7±0.9.

Q: What about the “Astrocytes, normalized IOD” value (astrocytes; day 9 p.i.) of the same compound?
A: Its value is 1.1±0.1.

Q: What about the “Astrocyte number of primary processes” value (astrocytes; day 9 p.i., n = 23, 18 cells) of the same compound?
A: Its value is 10±2.

Q: And the concentration at 1 h [3, 4]?
A: Its concentration at 1 h is 400 ng/g.

Q: What about the concentration at 6 h ([3]; brain, 20 mg/kg, BMS in brain, 20 mg/kg i.v. on day 6 p.i., 6 h post-injection) of the same compound?
A: Its concentration at 6 h is 100 ng/g.

Q: What about the concentration at 24 h ([3]; brain, 20 mg/kg, BMS in brain, 20 mg/kg i.v. on day 6 p.i., 24 h post-injection) of the same compound?
A: Its concentration at 24 h is 100 ng/g.

Q: And the concentration at 48 h [3, 4]?
A: Its concentration at 48 h is 100 ng/g.

Q: What about the concentration at 1 h [3, 5] of the same compound?
A: Its concentration at 1 h is 2900 ng/g.

Q: And the concentration at 6 h ([3]; heart, 20 mg/kg, BMS in heart, 20 mg/kg i.v. on day 6 p.i., 6 h post-injection)?
A: Its concentration at 6 h is 2400 ng/g.

Q: What about the concentration at 24 h ([3]; heart, 20 mg/kg, BMS in heart, 20 mg/kg i.v. on day 6 p.i., 24 h post-injection) of the same compound?
A: Its concentration at 24 h is ~3000 ng/g.

Q: What about the concentration at 48 h [3, 5] of the same compound?
A: Its concentration at 48 h is 3300 ng/g.

Q: What about the concentration at 1 h [3, 6] of the same compound?
A: Its concentration at 1 h is 2400 ng/g.

Q: And the concentration at 6 h ([3]; liver, 20 mg/kg, BMS in liver, 20 mg/kg i.v. on day 6 p.i., 6 h post-injection)?
A: Its concentration at 6 h is 3400 ng/g.

Q: And the concentration at 24 h ([3]; liver, 20 mg/kg, BMS in liver, 20 mg/kg i.v. on day 6 p.i., 24 h post-injection)?
A: Its concentration at 24 h is 400 ng/g.

Q: What about the concentration at 48 h [3, 6] of the same compound?
A: Its concentration at 48 h is 400 ng/g.

Q: What about the concentration at 1 h [3, 7] of the same compound?
A: Its concentration at 1 h is 1600 ng/g.

Q: What about the concentration at 6 h ([3]; lungs, 20 mg/kg, BMS in lungs, 20 mg/kg i.v. on day 6 p.i., 6 h post-injection) of the same compound?
A: Its concentration at 6 h is 2400 ng/g.

Q: And the concentration at 24 h ([3]; lungs, 20 mg/kg, BMS in lungs, 20 mg/kg i.v. on day 6 p.i., 24 h post-injection)?
A: Its concentration at 24 h is 2000 ng/g.

Q: What about the concentration at 48 h [3, 7] of the same compound?
A: The concentration at 48 h was 2000 ng/g.

Q: And the “BMS in lungs, µg drug/g organ” value ([3]; 20 mg/kg i.v. on day 6 p.i., 24 h post-injection, listed as Free BMS, 20 mg/kg)?
A: Its value is 1.9 µg drug/g organ.

Q: What about the “Brain to liver BMS concentration ratio” value ([3]; 6 h post-injection) of the same compound?
A: Its value is 0.03.
